Results taken from patent US10653698B2, “Methods of improving myocardial performance in Fontan patients using udenafil compositions” (priority 2014, dated 2020).

Assay: clinical
Conditions: human, in vivo
Protocol: The population PK analysis was performed using a non-linear mixed effects modeling approach. This approach estimates the typical value of parameters and their variances. It was assumed subjects were at steady state (SS): at a time (t) after dose (D) given at time tD after repeated administration of dose D given at interval τ (t≥tD) as PK samples/udenafil concentrations were taken on study day 6.
As only the drug administration at Day 6 was supplied, it is expected that the subjects have taken the drug at regular intervals at home; due to this a steady state flag will be tested to account for the doses which are not available. As stated, it is assumed steady state has been reached by Day 6, as previous studies of udenafil have stated that during multiple dosing, steady state is reached in 5 days, with apparently little additional accumulation occurring after dosing for 7 days. If there were missed doses during the study period prior to the PK sampling, this can affect the ability to determine whether steady state could be assumed or not for the PK profile. If two or more additional drug administration dates and times were available prior to the visit where the PK samples were taken, then a much better dosing profile could be used for analysis.
One- and two-compartment models were explored (based on literature and available data). The equation for the Input model for the drug described oral absorption. For the one-compartment model, the following equation may apply to the model:
The robustness of the final model was assessed in PDxPOP® 5 by bootstrap re-sampling (n=1000). Values obtained with the bootstrap (based on all runs with successful minimization) were compared to the parameter estimates from the final model. To evaluate the accuracy of the model predictions, normalized prediction distribution errors (NPDE) was performed.
One- and two-compartment models with oral absorption input were evaluated using initial estimates obtained from the literature as described above, and were explored to determine the potential structure of the model. The models were evaluated during the model building process by using objective function value, level of statistical significance, goodness of fit plots, and standard error.
The only covariate available for analysis was current body weight. Weight was tested as a fixed effect on typical values for clearance and volume of distribution (e.g., weight has a “fixed effect” on clearance). Median weight in the dataset was 65.3 kg. […]
During the model building process, a number of residual error models were evaluated. […]
Bootstrap re-sampling was undertaken to compare the parameter estimates from the final model with those determined following 1000 bootstrap runs. […]

In the case of `CCCOc1ccc(S(=O)(=O)NCCC2CCCN2C)cc1-c1nc2c(CCC)nn(C)c2c(=O)[nH]1` (stereo not shown) [udenafil], the Vd/F is reported as 74 L, the “apparent clearance (CL/F/70 kg)” value is reported as 36 L/h and the inter-compartmental clearance (Q/F) is reported as 21.1 L/h. For the same compound, the “peripheral volume of distribution (V3/F)” value was 181 L.
